What was measured:
[1] = system: T1, P. falciparum NF54 stage V male gametocytes; experiment: microbe, parasite or virus in culture; design: male gamete formation assay (DGFA format), inhibition of exflagellation of stage V gametocytes; conditions: Plasmodium falciparum, NF54, male gamete formation
T1 construct: NF54
Source text: Yahiya et al. 2021 Supplement Page 26 of 27 345 IC50 determination by male gamete formation assay 346 The male gamete formation assay (MGFA) was adapted from the previously described dual gamete formation assay (DGFA)3 347 to identify male gamete targeted activity. Briefly, compounds 348 were dispensed into 384-well plates using the HP D300 Digital Dispenser in serial dilutions. Single 349 point controls, a DMSO negative control (0.25% final assay volume) and 20 µM DDD01028076 350 positive control, were included across the plate. Maintaining RT, 10 µl ookinete medium was 351 dispensed into each well, followed by addition of 50 µl of stage V NF54 gametocyte culture (day 14 352 post-induction and onwards). […] Plates were then immediately incubated at 4°C 354 for 4 minutes, followed by 28°C for 5 minutes. Table 1. DDD01035881 and derivatives Activity of DDD01035881 and structural analogues as determined in a structure activity relationship study. IC50s depicted represent the inhibition of male gamete viability as determined by the male gamete formation format of the DGFA. Values are expressed as an average ± SEM of 3-8 biological replicates, ≥ 2 technical replicates.[15]

Pfs16 [2] = biological target: T2, Pfs16 (Plasmodium falciparum, UniProt Q6ZMA7); experiment: CETSA melt curve with immunoblot; assay type: biochemical; conditions: activated stage V gametocyte lysate, 100 uM compound, 1% Triton X-100, pH 7.5; also isothermal dose response at 78.4 °C
T2 construct: native full-length protein in stage V gametocytes or their Triton X-100 lysate; 157 residues, 16 kDa, two transmembrane domains
T2 sequence (Q6ZMA7 26-157): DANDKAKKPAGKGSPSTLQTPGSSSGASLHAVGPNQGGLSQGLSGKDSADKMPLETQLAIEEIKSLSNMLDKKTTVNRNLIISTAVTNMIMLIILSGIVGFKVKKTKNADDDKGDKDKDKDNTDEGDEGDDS

Pfs16 [3] = biological target: T2, Pfs16; experiment: photoaffinity labelling, click capture, pulldown, TMT nLC-MS/MS, in-gel fluorescence and immunoblot; assay type: cell-based; conditions: live stage V gametocytes, 2.5-10 uM, 254 nm UV; covalent after irradiation

O=S(=O)(NCC1(O)CCOc2ccccc21)c1ccccc1Br (stereo not shown) [DDD01028076]
IC50 [1]: 0.367 ± 0.06 µM

O=S(=O)(NCC1(O)CCOc2ccccc21)c1ccc(Br)s1 (stereo not shown) [DDD01035881]
IC50 [1]: 0.292 ± 0.076 µM
Tm shift (Pfs16 [2]): DDD01035881 treatment clearly resulted in a positive shift in the Pfs16 melting curve

O=S(=O)(NCC1(O)CCOc2ccc(Br)cc21)c1cccc(Br)c1 (stereo not shown) [compound 1, parent molecule 1]
IC50 [1]: 0.785 ± 0.048 µM

C#Cc1ccc2c(c1)C(O)(CNS(=O)(=O)c1cccc(N=[N+]=[N-])c1)CCO2 (stereo not shown) [compound 2, probe 2]
IC50 [1]: 3.98 ± 0.211 µM
photoaffinity labelling, click capture, pulldown, TMT nLC-MS/MS, in-gel fluoresc (Pfs16 [3]): a dose-dependent pulldown of Pfs16 was clearly observed

C#Cc1ccc2c(c1)C(O)(CNS(=O)(=O)c1cccc(Br)c1)CCO2 (stereo not shown) [compound 3, 3]
IC50 [1]: 0.37 ± 0.079 µM

C#Cc1cccc(S(=O)(=O)NCC2(O)CCOc3ccccc32)c1 (stereo not shown) [compound 4, 4]
IC50 [1]: > 1 µM

C#Cc1ccc2c(c1)C(O)(CN(CCC1(C)N=N1)S(=O)(=O)c1cccc(Br)c1)CCO2 (stereo not shown) [compound 5, 5]
IC50 [1]: > 25 µM

O=S(=O)(NCC1(O)CCOc2ccc(O)cc21)c1cccc(Br)c1 (stereo not shown) [compound 6, 6]
IC50 [1]: > 11 µM

C=CCOc1ccc2c(c1)C(O)(CNS(=O)(=O)c1cccc(Br)c1)CCO2 (stereo not shown) [compound 7, 7]
IC50 [1]: > 25 µM

CCCCn1cc(-c2ccc3c(c2)C(O)(CNS(=O)(=O)c2cccc(Br)c2)CCO3)nn1 (stereo not shown) [compound 9, 9]
IC50 [1]: > 25 µM

CN(CC1(O)CCOc2ccccc21)S(=O)(=O)c1cccc(Br)c1 (stereo not shown) [compound 10, 10]
IC50 [1]: > 10 µM

Reference: doi:10.1101/2021.06.14.448287v1, “Plasmodium falciparum protein Pfs16 is a target for transmission-blocking antimalarial drug development” (biorxiv, 2021)
